We go through one compound from ChEMBL document CHEMBL1201862, “PubChem BioAssay data set” (2004).

The nature of assay [1]: Luminescence Cell-Based Dose Response HTS to Identify Inhibitors of 5'UTR Stem-Loop Driven Prion Protein mRNA Translation in H4 Neuroglioblastoma Cells. [Related pubchem assays: 1827 (Project Summary), 1813 (Primary HTS)]. Format: functional.
Assay [2] is described as follows: cells. Format: functional, cell-based.
The test system of assay [3] is BJ. Put plainly: cytotoxicity toward BJ-TERT fibroblasts, dose response, cell-based, RAS-independent, luminescence (AID 1933). The class given is functional. The conditions noted are these: Homo sapiens.
Assay [4] is described as follows: NIH-3T3 fibroblast cytotoxicity, dose response, cytotoxicity control, cell-based, fluorescence, Alamar Blue, secondary assay (AID 2327).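 Further: NIH-3T3 mouse fibroblasts cultured with fluconazole at 8 µg/mL.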 The class given is functional.
Assay [5] concerns BJ. Put plainly: cytotoxicity toward BJ-TERT-LT-ST fibroblasts, dose response, cell-based, RAS-independent, luminescence (AID 1935).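 Further: BJ fibroblasts immortalized with TERT plus LT and ST oncogenes.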 Format: functional. The conditions noted are these: Homo sapiens.
Assay [6] addresses T1, Calpain-2 catalytic subunit (Sus scrofa, UniProt P43367).
T1 sequence (P43367 whole entry): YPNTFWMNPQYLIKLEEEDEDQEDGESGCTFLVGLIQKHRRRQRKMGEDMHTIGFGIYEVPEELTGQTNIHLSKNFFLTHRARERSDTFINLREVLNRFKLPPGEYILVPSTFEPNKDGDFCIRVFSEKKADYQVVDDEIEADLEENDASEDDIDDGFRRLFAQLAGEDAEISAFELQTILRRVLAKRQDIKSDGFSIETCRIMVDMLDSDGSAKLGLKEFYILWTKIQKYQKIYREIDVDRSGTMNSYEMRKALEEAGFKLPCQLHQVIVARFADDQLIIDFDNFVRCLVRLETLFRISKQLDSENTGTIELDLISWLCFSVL
The experiment in a line: pig calpain II inhibitor potency, dose response, biochemical, fluorogenic peptide substrate (AID 1420). The class given is functional.

The nature of assay [7]: inhibitors of SNCA 5'UTR-driven reporter translation, confirmation, H4 neuroglioma cells, luminescence (AID 1988). Format: functional, cell-based.
Assay [8] deals with Streptococcus. Put plainly: Group A Streptococcus viability loss, dose response, counter-screen for streptokinase expression inhibitor project, luminescence, BacTiterGlo (AID 1915).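 Further: potency for reduction of bacterial viability or growth.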 The class given is functional, organism-based.
A short description of assay [9]: inhibitors of firefly luciferase expression or activity, dose response, H4 neuroglioma cells, luminescence (AID 1990). The class given is functional, cell-based.
Assay [10] is described as follows: cells. Format: functional, cell-based. The source holds these as a separate data set.
A short description of assay [11]: cytotoxicity toward NIH3T3 fibroblasts, dose response, counter-screen, cell-based, ATP luminescence, mouse fibroblasts (AID 2010).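 Further: cells exposed to compound for about 90 hours before reading.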 Format: functional.
In assay [12] the test system is BJ. Put plainly: cells. Format: functional, cell-based. To be noted: Homo sapiens.
For assay [13], the target named is T2, Aminopeptidase N (Plasmodium falciparum FcB1/Columbia, UniProt O96935).
T2 sequence (O96935 whole entry): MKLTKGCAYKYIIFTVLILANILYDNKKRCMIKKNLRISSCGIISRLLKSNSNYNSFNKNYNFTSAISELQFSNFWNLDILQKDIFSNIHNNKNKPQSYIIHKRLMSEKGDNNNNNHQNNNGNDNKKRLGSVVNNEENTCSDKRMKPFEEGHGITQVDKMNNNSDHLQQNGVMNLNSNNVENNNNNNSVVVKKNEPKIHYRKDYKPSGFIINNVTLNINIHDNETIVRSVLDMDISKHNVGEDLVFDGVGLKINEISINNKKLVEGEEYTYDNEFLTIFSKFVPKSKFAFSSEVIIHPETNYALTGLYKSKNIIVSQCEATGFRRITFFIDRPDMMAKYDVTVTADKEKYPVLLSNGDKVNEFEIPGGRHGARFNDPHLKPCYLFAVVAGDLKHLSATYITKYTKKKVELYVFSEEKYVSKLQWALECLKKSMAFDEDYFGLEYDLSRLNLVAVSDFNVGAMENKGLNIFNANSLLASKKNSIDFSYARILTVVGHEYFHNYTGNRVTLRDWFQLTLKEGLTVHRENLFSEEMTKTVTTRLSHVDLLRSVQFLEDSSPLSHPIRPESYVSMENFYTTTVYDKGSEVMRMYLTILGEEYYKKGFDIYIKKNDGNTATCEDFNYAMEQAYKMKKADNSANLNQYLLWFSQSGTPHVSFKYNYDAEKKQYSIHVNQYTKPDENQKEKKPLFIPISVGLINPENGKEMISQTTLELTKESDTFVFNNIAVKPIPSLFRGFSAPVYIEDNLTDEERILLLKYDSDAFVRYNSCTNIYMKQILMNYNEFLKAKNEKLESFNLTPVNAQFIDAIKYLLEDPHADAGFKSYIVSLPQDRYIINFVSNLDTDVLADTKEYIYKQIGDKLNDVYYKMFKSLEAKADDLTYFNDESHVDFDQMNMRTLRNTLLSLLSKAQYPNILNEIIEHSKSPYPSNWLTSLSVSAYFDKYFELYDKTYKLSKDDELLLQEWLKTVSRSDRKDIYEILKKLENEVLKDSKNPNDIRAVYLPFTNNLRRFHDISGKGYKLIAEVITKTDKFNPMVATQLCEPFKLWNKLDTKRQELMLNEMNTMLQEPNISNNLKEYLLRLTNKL
Put plainly: P. falciparum M1AAP inhibitors, biochemical, fluorogenic H-Leu-NHMec substrate, 1536-well (AID 1445). Also on record: species or system Plasmodium falciparum 3D7, 3D7.

Assay [14] is described as follows: human group III sPLA2 inhibitors, dose response, biochemical, QFRET, IC50 (AID 743457).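 Further: green fluorescence rise as the enzyme cleaves BODIPY PC-A2 in liposomes; potency for inhibition of the enzyme.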
The subject of assay [15] is Streptococcus sp. 'group A'. The experiment in a line: growth inhibition of control SK(-) GAS strain, dose response, counter-screen for streptokinase expression inhibitor project, luminescence, kanamycin, BacTiterGlo, confirmation (AID 1900). The class given is functional, organism-based. (A counterscreen serves to expose hits that act by an unwanted route or on another target.)

Assay [16] is described as follows: inhibitors of intracellular T. cruzi replication, confirmation, NIH3T3 host cells, beta-gal luminescence (AID 2044).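 Further: intracellular parasites grown in NIH/3T3 mouse fibroblasts as host cells; luminescent beta-galactosidase reporter signal from transgenic T. cruzi replicating inside host cells; inhibitors lower the luminescence signal.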 The class given is functional, cell-based.
The nature of assay [17]: cytotoxicity toward DRD oncogenic fibroblasts, dose response, cell-based, non-viral oncogenic, luminescence (AID 1934). Format: functional. The conditions noted are these: Homo sapiens.
Assay [18] in a line: C. albicans growth with fluconazole, confirmation, fluorescence, retest (AID 2467). The class given is functional, cell-based.

The EC50 is the concentration at which the effect is half-maximal. The IC50 is the midpoint of a concentration-inhibition curve.

The structures appear in SMILES notation. Activity calls are given as the source filed them. For most assays here, no stated cut-off is given here; in the data, actives have a measured EC50 and inactives only a lower limit.

Turning to `Oc1ccccc1N=Nc1ccccc1O`, the EC50 in assay [1] was > 120 µM (not active); in assay [2] it was 2.06 µM (active); in assay [3] it was 0.626 µM (active); in assay [4] it was > 160 µM (inactive); in assay [5], 3.31 µM (inconclusive); in assay [7], 0.13 µM (active). Also, the concentration giving a half-maximal response (EC50) in assay [8] was 8.99 µM (active); in assay [9], 14.7 µM (active); in [10] it was 12.7 µM (active); in assay [11], 12.1 µM (active); in assay [12] it was 2.3 µM (inconclusive); in [15] it was 0.6 µM (active). In addition, the values for the concentration giving a half-maximal response (EC50) in [16], in assay [17] and in assay [18] were 1.3 µM (active), 1.15 µM (active) and 1.38 µM (active), respectively. For the same compound, the IC50 in assay [6] is > 50 µM (not active); in [13], 22.1 µM (active); in [14], > 122 µM (inactive).
